Data as given in patent US7351731B2, “Azole derivatives and methods for making the same” (Board of Governors for Higher Education, State of Rhode …, priority 2005, dated 2008).
Converted amounts (≈) assume the structure as drawn.

Tests used:
[1] = system: C. albicans ATCC 14053; assay: MIC microdilution susceptibility testing, C. albicans in RPMI; assay type: cell-based, Candida albicans; conditions: RPMI medium pH 6.9, 35-37° C., 24-48 h, average of three experiments; for MIC: Candida albicans, ATCC14053, read-out: MIC C. albicans ATCC 14053, RPMI
Procedure: (§1) Microorganisnis. […] Stock cultures were kept on Sabouraud dextrose agar (SDA; Becton-Dickinson and Co., Sparks, Md.). Subcultures were prepared on SDA at 35-37° C. Suspension cultures were prepared by inoculation of single colonies in 7 ml of normal saline solution.
(§2) Test compounds were dissolved in DMSO (0.56 mg/ml) and stored at 0° C. Working dilutions were made in RPMI or SDB medium. […] The final maximum concentration of DMSO in the assays was 5% (v/v).
(§3) Microdilutions for control experiments with C. albicans, A. niger, and C. neoformans were the modified method of National Committee for Clinical Laboratory Standards (NCCLS) method as described by Galgiani and by the more recent NCCLS M27-A microdilution methods as described previously. Galgiani, J. N. Antimicrob. Agents Chemother. […] Reference method for broth dilution antifungal susceptibility testing for yeasts. Approval standard. […] 9; C. arballeira, N. M., et al. Arch. Pharm.-Pharm. […] Dilutions were prepared in 0.1 ml of RPMI or SDB; the inocula were either 10^4 C. albicans or C. neoformans cells or A. niger spores. The tubes were incubated for 24-48 h at 36±1° C., and turbidity was read visually.

[2] = system: C. albicans ATCC 14053; assay: MIC microdilution susceptibility testing, C. albicans in SDB; assay type: cell-based, Candida albicans; conditions: 24-48 h, average of three experiments; for MIC C. albicans ATCC 14053, SDB: SDB medium pH 5.6, 35-37° C.; for MIC: Candida albicans, ATCC14053, pH 5.6, SDB medium pH 5.6, 35-37° C.
Procedure: as §1, §2, §3

[3] = system: C. neoformans ATCC 66031; assay: MIC microdilution susceptibility testing, C. neoformans in SDB; assay type: cell-based, Cryptococcus neoformans; conditions: SDB medium, 35-37° C., 24-48 h, average of three experiments; for MIC: Cryptococcus neoformans, ATCC66031
Procedure: as §1, §2, §3

[4] = system: A. niger ATCC 16404; assay: MIC microdilution susceptibility testing, A. niger in SDB; assay type: cell-based, Aspergillus niger; conditions: SDB medium, 35-37° C., 24-48 h, average of three experiments; for MIC: Aspergillus niger, ATCC16404
Procedure: as §1, §2, §3

CCCCC(Br)C(=O)OC(Cn1cncn1)(Cn1cncn1)c1ccc(F)cc1F (stereo not drawn) [Compound 1f, O-2-Bromohexanoylfluconazole]
MIC C. albicans ATCC 14053, RPMI [1]: 61 µg/mL (≈ 126 µM) | MIC C. albicans ATCC 14053, SDB [2]: 492 µg/mL (≈ 1020 µM) | MIC C. neoformans ATCC 66031, SDB [3]: 492 µg/mL (≈ 1020 µM) | MIC A. niger ATCC 16404, SDB [4]: ≧979 μg/mL

CCCCCCCCCCC(Br)C(=O)OC(Cn1cncn1)(Cn1cncn1)c1ccc(F)cc1F (stereo not drawn) [Compound 1h, O-2-Bromolauroylfluconazole]
MIC C. albicans ATCC 14053, RPMI [1]: 1,466 μg/mL | MIC C. albicans ATCC 14053, SDB [2]: 1,466 μg/mL | MIC C. neoformans ATCC 66031, SDB [3]: 1,466 μg/mL | MIC A. niger ATCC 16404, SDB [4]: ≧1,466 μg/mL

CCCCCCCCCCCCC(Br)C(=O)OC(Cn1cncn1)(Cn1cncn1)c1ccc(F)cc1F (stereo not drawn) [Compound 1i, O-2-Bromomyristoylfluconazole]
MIC C. albicans ATCC 14053, RPMI [1]: 731 µg/mL (≈ 1230 µM) | MIC C. albicans ATCC 14053, SDB [2]: 731 µg/mL (≈ 1230 µM) | MIC C. neoformans ATCC 66031, SDB [3]: 731 µg/mL (≈ 1230 µM) | MIC A. niger ATCC 16404, SDB [4]: >731 µg/mL

O=C(OCCCl)OC(Cn1cncn1)(Cn1cncn1)c1ccc(F)cc1F [Compound 1k, O-2-Chloroethyloxycarbonylfluconazole]
MIC C. albicans ATCC 14053, RPMI [1]: 977 µg/mL (≈ 2370 µM) | MIC C. albicans ATCC 14053, SDB [2]: >977 µg/mL | MIC C. neoformans ATCC 66031, SDB [3]: >977 µg/mL | MIC A. niger ATCC 16404, SDB [4]: >977 µg/mL

O=C(OC(Cn1cncn1)(Cn1cncn1)c1ccc(F)cc1F)c1ccccc1O [Compound 1l, O-Salicylfluconazole]
MIC C. albicans ATCC 14053, RPMI [1]: ≧1,212 μg/mL | MIC C. albicans ATCC 14053, SDB [2]: >1,212 μg/mL | MIC C. neoformans ATCC 66031, SDB [3]: >1,212 μg/mL | MIC A. niger ATCC 16404, SDB [4]: >1,212 μg/mL

CC(=O)OC[C@H]1O[C@@H](OP(=O)(OCCC#N)OC(Cn2cncn2)(Cn2cncn2)c2ccc(F)cc2F)[C@H](OC(C)=O)[C@@H](OC(C)=O)[C@@H]1OC(C)=O (stereo partly drawn) [Compound 4a, 2-Cyanoethyl-[1-(β-D-2,3,4,6-glucosyltetraacetate)]fluconazole phosphate]
MIC C. albicans ATCC 14053, SDB [2]: 1,999 μg/mL | MIC C. neoformans ATCC 66031, SDB [3]: 551 µg/mL | MIC A. niger ATCC 16404, SDB [4]: 1,999 μg/mL

CC(=O)N[C@H]1[C@H](OP(=O)(OCCC#N)OC(Cn2cncn2)(Cn2cncn2)c2ccc(F)cc2F)O[C@H](COC(C)=O)[C@@H](OC(C)=O)[C@@H]1OC(C)=O (stereo partly drawn) [Compound 4b, 2-Cyanoethyl-[1-(2-acetamido-2-deoxy-3,4,6-tri-O-acetyl-β-D-glucopyranosidyl)]fluconazole phosphate]
MIC C. albicans ATCC 14053, SDB [2]: >3,399 μg/mL | MIC C. neoformans ATCC 66031, SDB [3]: 306 µg/mL | MIC A. niger ATCC 16404, SDB [4]: 1,699 μg/mL

[N-]=[N+]=NC(Cn1cncn1)(Cn1cncn1)c1ccc(F)cc1F [Compound N3]
MIC [1]: > 610 µg/mL | MIC [2]: > 610 µg/mL | MIC [3]: 19 µg/mL (≈ 57.4 µM) | MIC [4]: 610 µg/mL (≈ 1840 µM)

CCCCCCCCCC(=O)O [Decanoic acid, reference compound]
MIC [1]: 791 µg/mL (≈ 4590 µM) | MIC [2]: 99 µg/mL (≈ 575 µM) | MIC [4]: < 12 µg/mL

OC(Cn1cncn1)(Cn1cncn1)c1ccc(F)cc1F [FLC, 1,3-bis(1H-1,2,4-triazol-1-yl)-2-(2,4-difluorophenyl)-propan-2-ol, reference compound]
MIC [1]: 2.3 µg/mL (≈ 7.51 µM) | MIC [2]: ≥ 4440 µg/mL | MIC [3]: 2.4 µg/mL (≈ 7.84 µM) | MIC [4]: > 580 µg/mL

Fc1ccc(C(I)(Cn2cncn2)Cn2cncn2)c(F)c1 [I]
MIC [1]: 749 µg/mL (≈ 1800 µM) | MIC [2]: > 749 µg/mL | MIC [3]: 47 µg/mL (≈ 113 µM) | MIC [4]: 749 µg/mL (≈ 1800 µM)

CS(=O)(=O)C(Cn1cncn1)(Cn1cncn1)c1ccc(F)cc1F [Mesyl]
MIC [1]: 645 µg/mL (≈ 1750 µM) | MIC [2]: 1290 µg/mL (≈ 3500 µM) | MIC [3]: 40 µg/mL (≈ 109 µM) | MIC [4]: 1290 µg/mL (≈ 3500 µM)

Fc1ccc(C(S)(Cn2cncn2)Cn2cncn2)c(F)c1 [SH]
MIC [2]: 1860 µg/mL (≈ 5780 µM) | MIC [3]: 339 µg/mL (≈ 1050 µM) | MIC [4]: > 3730 µg/mL

CCCCCCCCCCCCCC(=O)O [Tetradecanoic acid, reference compound]
MIC [1]: > 876 µg/mL | MIC [2]: 1750 µg/mL (≈ 7660 µM) | MIC [3]: > 529 µg/mL | MIC C. neoformans ATCC 66031, SDB [3]: >529 µg/mL | MIC [4]: > 529 µg/mL

CCCCCCCCCCCCCCO [Tetradecanol, reference compound]
MIC [2]: 1720 µg/mL (≈ 8020 µM) | MIC [3]: 14 µg/mL (≈ 65.3 µM) | MIC [4]: 27 µg/mL (≈ 126 µM)

Cc1ccc(S(=O)(=O)C(Cn2cncn2)(Cn2cncn2)c2ccc(F)cc2F)cc1 [Tosyl]
MIC [1]: 365 µg/mL (≈ 821 µM) | MIC [2]: > 731 µg/mL | MIC [3]: 46 µg/mL (≈ 103 µM) | MIC [4]: > 731 µg/mL

C=CCCCCCCCCCO [ω-Undecylenyl alcohol, reference compound]
MIC C. albicans ATCC 14053, SDB [2]: 110 µg/mL (≈ 646 µM) | MIC C. neoformans ATCC 66031, SDB [3]: 14 µg/mL (≈ 82.2 µM) | MIC A. niger ATCC 16404, SDB [4]: 27 µg/mL (≈ 159 µM)
